# Target: Cyclin-dependent kinase 2 (Homo sapiens, UniProt P24941)
# Assay: Evaluated for inhibition of human cyclin dependent kinase 2 (CDK2)
row,SMILES,IC50 [nM]
1,"O=C1Nc2ccc3ncsc3c2C1C=Nc1ccc(S(=O)(=O)NCc2ccccc2)cc1 (stereo not given) [N-Benzyl-4-{[(7-oxo-6,7-dihydro-8H-[1,3]thiazolo[5,4-e]-indol-8-ylidene)methyl]amino}benzenesulfonamide]",5.6
2,"CNS(=O)(=O)c1ccc(N=CC2C(=O)Nc3ccc4ncsc4c32)cc1 (stereo not given) [N-Methyl-4-{[(7-oxo-6,7-dihydro-8H-[1,3]thiazolo[5,4-e]-indol-8-ylidene)methyl]amino}benzenesulfonamide]",5.6
3,"CN(C)c1ccc2c(c1)C(C=Nc1ccc(S(N)(=O)=O)cc1)C(=O)N2 (stereo not given) [4-({[5-(Dimethylamino)-2-oxo-1,2-dihydro-3H-indol-3-ylidene]methyl}amino)benzenesulfonamide]",310

# The next lines start with the values.
row,IC50 [nM],SMILES
1,> 10000,Cc1cccc2c1NC(=O)C2C=Nc1ccc(S(N)(=O)=O)cc1 (stereo not given)
2,> 10000,Cc1cc(Cl)cc2c1NC(=O)C2C=Nc1ccc(S(N)(=O)=O)cc1 (stereo not given)

# From BindingDB's records for doi:10.1021/jm0304358 (Yale University, 2004)
